We go through six compounds from patent publication US20050165011A1, “Benzoxazine and benzoxazinone substituted triazoles” (priority 2002, published 2005).

By melting point is commonly meant the temperature of the solid-liquid transition.

The first data set concerns TGF-β signaling (PAl-1 promoter luciferase reporter, HepG2 cells). The data set is described as follows: Cellular transcriptional assay (PAI-1 promoter luciferase reporter in HepG2 cells exposed to TGF-β). Format: cell-based. The conditions noted are these: 500 μM CPO in the presence of TGF-β; toxicity control. On the procedure: Assay 1 (Cellular Transcriptional Assay)
The assay was performed in HepG2 cells stably transfected with the PAl-1 promoter (known to be a strong TGF-β responsive promoter) linked to a luciferase (firefly) reporter gene. The compounds were selected on their ability to inhibit luciferase activity in cells exposed to TGF-β. In addition, cells were transfected with a second luciferase (Renilla) gene which was not driven by a TGF-β responsive promoter and was used as a toxicity control.
96 well microplates were seeded, using a multidrop apparatus, with the stably transfected cell line at a concentration of 35000 cells per well in 200 μl of serum-containing medium. These plates were placed in a cell incubator.
18 to 24 hours later (Day 2), cell-incubation procedure was launched. […] Each well contained only one candidate compound and its effect on the PAl-1 promoter was monitored.
Columns 11 and 12 were employed as controls. […] Column 11 was used to determine the ‘reference TGF-β induced firefly luciferase value’ against which values measured in the test wells (to quantify inhibitory activity) were compared. […]
12 to 18 hours later (day 3), the luciferase quantification procedure was launched. […] Following agitation (15 to 30 mins), luciferase activities of the plates were read in a dual-injector luminometer (BMG lumistar). […]
Regarding `O=C1C=CCC1` [CPO, Cyclopentenone], the “firefly and renilla luciferase activities relative to TGF-β only wells” value is “around 50%”.

Test system in another data set: not given
Experiment: not given
Details: not given
The compound `O=C1COc2ccc(-c3nn[nH]c3-c3cccc(Cl)c3)cc2N1` yielded a melting point of 220 °C.

With `O=C1COc2ccc(-c3nn[nH]c3-c3ccccn3)cc2N1`, the melting point came to 256 °C.

Regarding `CCN1C(=O)COc2ccc(-c3nn[nH]c3-c3cccc(C)n3)cc21`, the melting point was found to be 187 °C. As to `Cc1cccc(-c2[nH]nnc2-c2ccc3c(c2)N(CCN2CCOCC2)C(=O)CO3)n1`, the melting point was determined as 150 °C.

With `Cc1cccc(-c2[nH]nnc2-c2ccc3c(c2)NC(=O)CO3)n1`, the melting point came to 224 °C.
